In ChEMBL document CHEMBL4627274, “Optimized plant compound with potent anti-biofilm activity across gram-negative species” (Bioorg Med Chem, 2020):
Active and inactive are the calls of the source. The rule behind the calls is not given here.

Key:
Escherichia coli [1] = assay: Inhibition of swarming motility of Escherichia coli PY31 at 16 ug/mL incubated for 16 to 20 hrs relative to control; format: functional
Pseudomonas aeruginosa [2] = assay: Inhibition of swarming motility of Pseudomonas aeruginosa HONKR at 16 ug/mL incubated for 16 to 20 hrs relative to control; format: functional
Burkholderia cepacia = assay: Inhibition of swarming motility of Burkholderia cepacia clinical isolates incubated for 16 to 20 hrs; format: functional
Escherichia coli [3] = assay: Inhibition of swarming motility of Escherichia coli clinical isolates incubated for 16 to 20 hrs; format: functional
Pseudomonas aeruginosa [4] = assay: Inhibition of swarming motility of Pseudomonas aeruginosa clinical isolates incubated for 16 to 20 hrs; format: functional
Salmonella enterica = assay: Inhibition of swarming motility of Salmonella enterica clinical isolates incubated for 16 to 20 hrs; format: functional
Escherichia coli [5] = assay: Antibiofilm activity against Escherichia coli UTI89 incubated for 2 days at 23 degC followed by 1 day incubation at RT; format: functional
Pseudomonas aeruginosa [6] = assay: Inhibition of swarming motility of Pseudomonas aeruginosa HONKR at 10 ug incubated for 18 to 24 hrs; format: functional, organism-based
Pseudomonas syringae = assay: Inhibition of swarming motility of Pseudomonas syringae incubated for 16 to 20 hrs; format: functional
M14 = assay: Cytotoxicity against human M14 cells assessed as reduction in cell viability at < 10 uM; format: cell-based
Pseudomonas aeruginosa [7] = assay: Downregulation of pilX gene expression in Pseudomonas aeruginosa by lacZ reporter gene based beta-galactosidase assay; format: functional, organism-based
Xanthomonas campestris = assay: Inhibition of swarming motility of Xanthomonas campestris incubated for 16 to 20 hrs; format: functional
Pseudomonas aeruginosa [8] = assay: Down regulation of pilY1 expression in swarm plate cultured Pseudomonas aeruginosa PAO1 incubated for 19 to 24 hrs by Western blot analysis; format: functional, organism-based
Pseudomonas aeruginosa [9] = assay: Potentiation of colistin-induced inhibition of swarming motility in Pseudomonas aeruginosa HONKR assessed as reduction in biofilm formation at 0.125 ug/mL; format: functional, organism-based
Pseudomonas aeruginosa [10] = assay: Down regulation of pilA expression in swarm plate cultured Pseudomonas aeruginosa PAO1 incubated for 19 to 24 hrs by Western blot analysis; format: functional, organism-based
Pseudomonas aeruginosa [11] = assay: Potentiation of tobramycin-induced inhibition of swarming motility in Pseudomonas aeruginosa HONKR assessed as reduction in biofilm formation at 0.125 ug/mL; format: functional, organism-based
[12] = system: Pectobacterium atrosepticum; assay: Inhibition of swarming motility of Pectobacterium atrosepticum incubated for 16 to 20 hrs; format: functional

Row | Compound | inhibition at 16 µg/mL (Escherichia coli [1]) | inhibition at 16 µg/mL (Pseudomonas aeruginosa [2]) | INH (Burkholderia cepacia) | INH (Escherichia coli [3]) | INH (Pseudomonas aeruginosa [4]) | INH (Salmonella enterica) | MBIC50 (Escherichia coli [5]) | further results
1 | Cn1cc2c(n1)C(C)(C)[C@@H]1CC[C@]3(C)[C@H](CC=C4[C@@H]5CC(C)(C)CC[C@]5(C(=O)O)CC[C@]43C)[C@@]1(C)C2 | 80% | > 90% | 1 µg/mL | >16 µg/mL | 16 µg/mL | >16 µg/mL | 8 µg/mL | 
2 | NC[C@H]1O[C@H](O[C@H]2[C@H](O)[C@@H](O[C@H]3O[C@H](CO)[C@@H](O)[C@H](N)[C@H]3O)[C@H](N)C[C@@H]2N)[C@H](N)C[C@@H]1O [TOBRAMYCIN] |  |  | >64 µg/mL | 16 µg/mL | 4 µg/mL | 8 µg/mL |  | inhibition (Pseudomonas aeruginosa [6]): inactive
3 | CC[C@H]1OC(=O)[C@H](C)[C@@H](O[C@H]2C[C@@](C)(OC)[C@@H](O)[C@H](C)O2)[C@H](C)[C@@H](O[C@@H]2O[C@H](C)C[C@H](N(C)C)[C@H]2O)[C@](C)(O)C[C@@H](C)CN(C)[C@H](C)[C@@H](O)[C@]1(C)O [AZITHROMYCIN] |  |  | >16 µg/mL |  | >16 µg/mL | >16 µg/mL |  | 
4 | CC1(C)CC[C@]2(C(=O)O)CC[C@]3(C)C(=CC[C@@H]4[C@@]5(C)CC[C@H](O)C(C)(C)[C@@H]5CC[C@]43C)[C@@H]2C1 [OLEANOLIC_ACID] | 80% | > 90% | 0.5 µg/mL | 16 µg/mL | 8 µg/mL | >64 µg/mL | >=32 ug ml-1 | 
5 | CC1(C)CC[C@]2(C(=O)O)CC[C@]3(C)C(=CC[C@@H]4[C@@]5(C)Cc6c(n[nH]c6N)C(C)(C)[C@@H]5CC[C@]43C)[C@@H]2C1 | > 90% | > 90% | 0.25 µg/mL | 1 µg/mL | 1 µg/mL | 1 µg/mL | 4 µg/mL | INH (Pseudomonas syringae): <0.5 µg/mL; Activity (M14): Non-Toxic; Activity (Pseudomonas aeruginosa [7]): Active; INH (Xanthomonas campestris): <0.5 µg/mL; Activity (Pseudomonas aeruginosa [8]): Dose-dependent effect; Activity (Pseudomonas aeruginosa [9]): Active; Activity (Pseudomonas aeruginosa [10]): Dose-dependent effect; Activity (Pseudomonas aeruginosa [11]): Active; INH [12]: <0.5 µg/mL
6 | COLISTIN |  |  |  |  |  |  |  | inhibition (Pseudomonas aeruginosa [6]): inactive
7 | CC(C)(O/N=C(\C(=O)N[C@@H]1C(=O)N2C(C(=O)[O-])=C(C[n+]3ccccc3)CS[C@H]12)c1csc(N)n1)C(=O)O [CEFTAZIDIME] |  |  | >8 µg/mL | 0.25 µg/mL | 4 µg/mL | 0.5 µg/mL |  | 
8 | CC1(C)CC[C@]2(C(=O)O)CC[C@]3(C)C(=CC[C@@H]4[C@@]5(C)Cc6cn[nH]c6C(C)(C)[C@@H]5CC[C@]43C)[C@@H]2C1 | > 90% | > 90% | 0.5 µg/mL | >16 µg/mL | 2 µg/mL | 16 µg/mL | 4 µg/mL | 
9 | CN(C)CCNC(=O)[C@@H]1C[C@]2(C)[C@H]3CC=C4[C@@H]5CC(C)(C)CC[C@]5(C(=O)O)CC[C@@]4(C)[C@]3(C)CC[C@H]2C(C)(C)[C@H]1O | 30% | < 20% |  |  |  |  | 4 µg/mL | 
10 | CNC(=N)[C@@H]1C[C@]2(C)[C@H]3CC=C4[C@@H]5CC(C)(C)CC[C@]5(C(=O)O)CC[C@@]4(C)[C@]3(C)CC[C@H]2C(C)(C)[C@H]1O | 30% | < 20% |  |  |  |  | >=32 ug ml-1 | 
